Reference: ChEMBL document CHEMBL4219088, “Novel 4-aminoquinazoline derivatives induce growth inhibition, cell cycle arrest and apoptosis via PI3Kα inhibition” (Bioorg Med Chem, 2018)
Active and inactive are the calls of the source. The calls are words filed in the database; no cut-off is given here.

Key:
HCT-116 [1] = assay: Cell cycle arrest in human HCT116 cells assessed as accumulation at subG1 phase at 0.5 uM after 24 hrs by propidium iodide staining based flow cytometry (reference value: 2.25%); type: functional
HCT-116 [2] = assay: Induction of apoptosis in human HCT116 cells assessed as necrotic cells at 4 uM after 48 hrs by Annexin V-FITC/propidium iodide staining based flow cytometry (reference value: 0.79%); type: functional
[3] = molecular target: Phosphatidylinositol 4,5-bisphosphate 3-kinase catalytic subunit alpha isoform (Homo sapiens) (UniProt P42336); assay: Inhibition of PI3Kalpha in human HCT116 cells assessed as reduction in GSK3beta phosphorylation at 0.5 to 2 uM after 24 hrs by Western blot analysis; type: cell-based
Phosphatidylinositol 4,5-bisphosphate 3-kinase catalytic subunit alpha isoform (Homo sapiens), sequence (P42336 whole entry, canonical isoform): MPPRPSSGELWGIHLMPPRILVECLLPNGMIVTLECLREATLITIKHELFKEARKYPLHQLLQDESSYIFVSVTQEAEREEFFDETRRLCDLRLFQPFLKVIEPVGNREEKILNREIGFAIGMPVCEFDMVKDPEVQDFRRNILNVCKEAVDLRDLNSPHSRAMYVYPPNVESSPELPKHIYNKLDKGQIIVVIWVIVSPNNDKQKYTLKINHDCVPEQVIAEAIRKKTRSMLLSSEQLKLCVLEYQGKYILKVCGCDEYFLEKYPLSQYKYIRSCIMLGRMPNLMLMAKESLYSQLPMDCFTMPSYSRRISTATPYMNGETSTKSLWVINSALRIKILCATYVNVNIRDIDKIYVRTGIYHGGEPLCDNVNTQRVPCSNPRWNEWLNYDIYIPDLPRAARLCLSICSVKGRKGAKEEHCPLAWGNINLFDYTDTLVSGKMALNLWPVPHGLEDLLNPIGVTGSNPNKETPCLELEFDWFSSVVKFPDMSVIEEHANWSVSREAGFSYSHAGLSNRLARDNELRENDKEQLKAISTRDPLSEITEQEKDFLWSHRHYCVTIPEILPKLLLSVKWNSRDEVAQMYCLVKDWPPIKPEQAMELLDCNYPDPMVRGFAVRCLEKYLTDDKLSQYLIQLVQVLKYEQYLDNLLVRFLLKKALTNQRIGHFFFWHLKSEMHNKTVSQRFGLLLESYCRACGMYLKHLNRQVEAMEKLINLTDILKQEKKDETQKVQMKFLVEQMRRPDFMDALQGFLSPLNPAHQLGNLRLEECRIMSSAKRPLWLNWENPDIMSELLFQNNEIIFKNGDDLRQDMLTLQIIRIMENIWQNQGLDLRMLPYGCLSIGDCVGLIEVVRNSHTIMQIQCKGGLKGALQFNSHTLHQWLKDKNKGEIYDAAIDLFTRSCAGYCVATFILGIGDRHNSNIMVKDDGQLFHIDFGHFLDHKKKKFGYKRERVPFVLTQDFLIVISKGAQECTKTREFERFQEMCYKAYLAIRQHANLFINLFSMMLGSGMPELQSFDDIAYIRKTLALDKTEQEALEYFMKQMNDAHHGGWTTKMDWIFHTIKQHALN

HCT-116 [4] = assay: Induction of apoptosis in human HCT116 cells assessed as increase in cytochrome C level at 1 to 4 uM after 48 hrs by Western blot analysis; type: functional, cell-based
HCT-116 [5] = assay: Induction of apoptosis in human HCT116 cells assessed as viable cells at 2 uM after 48 hrs by Annexin V-FITC/propidium iodide staining based flow cytometry (reference value: 94.06%); type: functional; conditions: HCT-116, 48 h, read-out: Activity
HCT-116 [6] = assay: Cell cycle arrest in human HCT116 cells assessed as accumulation at G0/G1 phase at 1 uM after 24 hrs by propidium iodide staining based flow cytometry (reference value: 44.01%); type: functional
PI3K p110 beta/p85 alpha = PI3K p110 beta/p85 alpha (Homo sapiens, UniProt P42338); assay: Inhibition of N-terminal His6-tagged recombinant full-length PI3Kbeta (unknown origin)/untagged recombinant full length p85alpha expressed in baculovirus infected Sf21 insect cells by ELISA
PI3K p110 beta/p85 alpha, sequence (P27986 whole entry): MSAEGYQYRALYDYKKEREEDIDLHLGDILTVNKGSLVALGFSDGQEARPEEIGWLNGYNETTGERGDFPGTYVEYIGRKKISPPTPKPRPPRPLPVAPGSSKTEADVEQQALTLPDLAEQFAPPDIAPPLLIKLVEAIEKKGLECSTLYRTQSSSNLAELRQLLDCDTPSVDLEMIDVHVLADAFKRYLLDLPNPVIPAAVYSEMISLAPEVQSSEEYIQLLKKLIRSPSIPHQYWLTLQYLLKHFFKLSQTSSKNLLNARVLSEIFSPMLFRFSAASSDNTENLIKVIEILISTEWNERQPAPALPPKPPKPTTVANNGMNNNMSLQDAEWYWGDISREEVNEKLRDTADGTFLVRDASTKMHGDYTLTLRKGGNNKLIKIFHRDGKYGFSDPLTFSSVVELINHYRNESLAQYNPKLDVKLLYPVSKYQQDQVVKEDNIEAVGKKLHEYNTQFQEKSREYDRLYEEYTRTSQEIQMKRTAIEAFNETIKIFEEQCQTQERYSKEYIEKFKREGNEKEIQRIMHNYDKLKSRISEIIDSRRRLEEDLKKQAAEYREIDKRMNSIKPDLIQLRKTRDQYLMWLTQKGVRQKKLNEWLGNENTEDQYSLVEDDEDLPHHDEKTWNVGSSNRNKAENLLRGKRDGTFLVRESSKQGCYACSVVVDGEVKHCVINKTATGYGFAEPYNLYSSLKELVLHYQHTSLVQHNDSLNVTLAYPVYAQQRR
PI3K p110 beta/p85 alpha, sequence (P42338 whole entry): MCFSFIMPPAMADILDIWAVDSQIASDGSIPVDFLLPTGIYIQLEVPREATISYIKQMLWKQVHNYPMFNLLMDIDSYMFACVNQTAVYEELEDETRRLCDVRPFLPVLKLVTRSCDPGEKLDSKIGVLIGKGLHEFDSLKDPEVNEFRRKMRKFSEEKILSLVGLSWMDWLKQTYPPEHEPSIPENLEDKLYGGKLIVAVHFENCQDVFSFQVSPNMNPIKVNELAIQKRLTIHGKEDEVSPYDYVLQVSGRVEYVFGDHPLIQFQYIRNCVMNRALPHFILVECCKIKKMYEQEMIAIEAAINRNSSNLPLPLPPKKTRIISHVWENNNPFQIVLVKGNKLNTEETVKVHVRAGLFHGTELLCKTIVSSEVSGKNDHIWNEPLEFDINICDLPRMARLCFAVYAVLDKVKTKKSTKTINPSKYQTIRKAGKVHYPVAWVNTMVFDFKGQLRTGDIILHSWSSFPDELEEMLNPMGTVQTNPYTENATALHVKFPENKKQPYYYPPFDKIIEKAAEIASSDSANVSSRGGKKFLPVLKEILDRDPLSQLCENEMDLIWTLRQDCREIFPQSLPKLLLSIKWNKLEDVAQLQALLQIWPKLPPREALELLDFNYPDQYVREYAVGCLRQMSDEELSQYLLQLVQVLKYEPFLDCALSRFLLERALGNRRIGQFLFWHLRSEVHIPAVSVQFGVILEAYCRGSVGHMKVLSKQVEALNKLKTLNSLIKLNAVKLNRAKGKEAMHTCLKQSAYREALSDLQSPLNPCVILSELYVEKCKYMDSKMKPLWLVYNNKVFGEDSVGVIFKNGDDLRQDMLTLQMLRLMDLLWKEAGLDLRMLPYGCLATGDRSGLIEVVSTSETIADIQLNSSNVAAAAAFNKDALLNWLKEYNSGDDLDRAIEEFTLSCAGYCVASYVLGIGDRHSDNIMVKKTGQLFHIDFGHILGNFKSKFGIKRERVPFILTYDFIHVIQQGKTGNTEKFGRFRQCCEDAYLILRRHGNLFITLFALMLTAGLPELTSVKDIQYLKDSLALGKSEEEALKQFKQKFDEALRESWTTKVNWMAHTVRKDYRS

HCT-116 [7] = assay: Induction of apoptosis in human HCT116 cells assessed as early apoptotic cells at 4 uM after 48 hrs by Annexin V-FITC/propidium iodide staining based flow cytometry (reference value: 3.72%); type: functional
HCT-116 [8] = assay: Induction of apoptosis in human HCT116 cells assessed as increase in cleaved caspase 9 level at 4 uM after 48 hrs by Western blot analysis; type: functional, cell-based
SNU-638 = assay: Antiproliferative activity against human SNU638 cells after 72 hrs by sulforhodamine B assay; type: functional, cell-based; conditions: SNU-638, 72 h
HCT-116 [9] = assay: Induction of apoptosis in human HCT116 cells assessed as increase in Bax level at 1 to 4 uM after 48 hrs by Western blot analysis; type: functional, cell-based
HCT-116 [10] = assay: Cell cycle arrest in human HCT116 cells assessed as accumulation at subG1 phase at 2 uM after 24 hrs by propidium iodide staining based flow cytometry (reference value: 2.25%); type: functional
HCT-116 [11] = assay: Induction of apoptosis in human HCT116 cells assessed as necrotic cells at 1 uM after 48 hrs by Annexin V-FITC/propidium iodide staining based flow cytometry (reference value: 0.79%); type: functional
HCT-116 [12] = assay: Downregulation of cyclin D1 protein expression in human HCT116 cells at 0.5 to 2 uM after 24 hrs by Western blot analysis; type: functional, cell-based
HCT-116 [13] = assay: Induction of apoptosis in human HCT116 cells assessed as decrease in Bcl-2 level at 1 to 4 uM after 48 hrs by Western blot analysis; type: functional, cell-based
HCT-116 [14] = assay: Cell cycle arrest in human HCT116 cells assessed as accumulation at G2/M phase at 2 uM after 24 hrs by propidium iodide staining based flow cytometry (reference value: 22.24%); type: functional
HCT-116 [15] = assay: Cell cycle arrest in human HCT116 cells assessed as accumulation at S phase at 2 uM after 24 hrs by propidium iodide staining based flow cytometry (reference value: 11.36%); type: functional
HCT-116 [16] = assay: Cell cycle arrest in human HCT116 cells assessed as accumulation at S phase at 1 uM after 24 hrs by propidium iodide staining based flow cytometry (reference value: 11.36%); type: functional
SK-HEP1 = assay: Antiproliferative activity against human SKHEP1 cells after 72 hrs by sulforhodamine B assay; type: functional, cell-based; conditions: SK-HEP1, 72 h
HCT-116 [17] = assay: Induction of apoptosis in human HCT116 cells assessed as late apoptotic cells at 2 uM after 48 hrs by Annexin V-FITC/propidium iodide staining based flow cytometry (reference value: 1.43%); type: functional
HCT-116 [18] = assay: Upregulation of p27 protein expression in human HCT116 cells at 0.5 to 2 uM after 24 hrs by Western blot analysis; type: functional, cell-based
[19] = molecular target: Phosphatidylinositol 4,5-bisphosphate 3-kinase catalytic subunit gamma isoform (Homo sapiens, UniProt P48736); assay: Inhibition of recombinant human N-terminal His6-tagged full length PI3K p120gamma expressed in baculovirus infected Sf21 insect cells by ELISA
Phosphatidylinositol 4,5-bisphosphate 3-kinase catalytic subunit gamma isoform, sequence (P48736 whole entry, canonical isoform): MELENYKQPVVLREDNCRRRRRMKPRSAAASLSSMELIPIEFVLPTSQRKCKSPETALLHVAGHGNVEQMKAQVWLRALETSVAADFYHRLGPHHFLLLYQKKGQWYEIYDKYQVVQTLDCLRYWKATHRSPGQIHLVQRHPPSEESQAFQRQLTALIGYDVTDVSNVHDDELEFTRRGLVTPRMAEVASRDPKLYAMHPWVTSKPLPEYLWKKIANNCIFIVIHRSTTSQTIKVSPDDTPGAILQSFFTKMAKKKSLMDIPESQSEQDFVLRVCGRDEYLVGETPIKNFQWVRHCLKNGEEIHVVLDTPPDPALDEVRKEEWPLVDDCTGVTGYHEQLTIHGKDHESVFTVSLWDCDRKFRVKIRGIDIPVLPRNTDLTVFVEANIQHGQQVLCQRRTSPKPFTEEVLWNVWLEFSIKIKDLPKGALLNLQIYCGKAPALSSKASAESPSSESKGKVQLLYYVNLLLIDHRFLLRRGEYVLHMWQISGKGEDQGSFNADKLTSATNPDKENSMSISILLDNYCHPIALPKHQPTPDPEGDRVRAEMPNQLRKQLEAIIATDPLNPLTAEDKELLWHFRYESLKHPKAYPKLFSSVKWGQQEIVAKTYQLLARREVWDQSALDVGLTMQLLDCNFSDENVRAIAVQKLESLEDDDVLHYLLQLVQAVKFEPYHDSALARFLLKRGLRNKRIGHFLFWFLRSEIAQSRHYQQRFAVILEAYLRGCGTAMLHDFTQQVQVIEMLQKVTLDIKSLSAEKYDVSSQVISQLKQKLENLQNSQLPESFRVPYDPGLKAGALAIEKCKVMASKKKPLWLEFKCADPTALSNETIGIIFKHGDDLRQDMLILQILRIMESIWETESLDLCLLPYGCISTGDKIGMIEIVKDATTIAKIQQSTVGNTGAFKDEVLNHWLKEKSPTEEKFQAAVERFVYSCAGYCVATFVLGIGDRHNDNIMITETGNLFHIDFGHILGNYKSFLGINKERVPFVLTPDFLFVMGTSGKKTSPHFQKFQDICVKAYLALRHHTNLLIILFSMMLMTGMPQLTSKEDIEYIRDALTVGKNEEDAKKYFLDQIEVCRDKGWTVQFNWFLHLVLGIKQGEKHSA

HCT-116 [20] = assay: Cell cycle arrest in human HCT116 cells assessed as accumulation at G2/M phase at 0.5 uM after 24 hrs by propidium iodide staining based flow cytometry (reference value: 22.24%); type: functional
HEK293 = assay: Antiproliferative activity against HEK293 cells after 72 hrs by sulforhodamine B assay; type: cell-based; conditions: Homo sapiens, HEK293, 72 h
HCT-116 [21] = assay: Cell cycle arrest in human HCT116 cells assessed as accumulation at subG1 phase at 1 uM after 24 hrs by propidium iodide staining based flow cytometry (reference value: 2.25%); type: functional
HCT-116 [22] = assay: Induction of apoptosis in human HCT116 cells assessed as early apoptotic cells at 2 uM after 48 hrs by Annexin V-FITC/propidium iodide staining based flow cytometry (reference value: 3.72%); type: functional
HCT-116 [23] = assay: Induction of apoptosis in human HCT116 cells assessed as increase in cleaved caspase 3 level at 4 uM after 48 hrs by Western blot analysis; type: functional, cell-based
HCT-116 [24] = assay: Cell cycle arrest in human HCT116 cells assessed as accumulation at G0/G1 phase at 2 uM after 24 hrs by propidium iodide staining based flow cytometry (reference value: 44.01%); type: functional
HCT-116 [25] = assay: Induction of apoptosis in human HCT116 cells assessed as viable cells at 4 uM after 48 hrs by Annexin V-FITC/propidium iodide staining based flow cytometry (reference value: 94.06%); type: functional; conditions: HCT-116, 48 h, read-out: Activity
HCT-116 [26] = assay: Induction of apoptosis in human HCT116 cells assessed as early apoptotic cells at 1 uM after 48 hrs by Annexin V-FITC/propidium iodide staining based flow cytometry (reference value: 3.72%); type: functional
[27] = molecular target: PI3-kinase p110-alpha/p85-alpha (Homo sapiens, UniProt P42336); assay: Inhibition of recombinant N-terminal His6-tagged full length PI3K p110alpha (unknown origin)/recombinant untagged full length p85alpha (unknown origin) expressed in baculovirus infected Sf21 insect cells by ELISA
PI3-kinase p110-alpha/p85-alpha, sequence (P27986 whole entry, canonical isoform): as the sequence (P27986 whole entry) above
PI3-kinase p110-alpha/p85-alpha, sequence (P42336 whole entry, canonical isoform): as the sequence (P42336 whole entry, canonical isoform) above

[28] = molecular target: Phosphatidylinositol 4,5-bisphosphate 3-kinase catalytic subunit alpha isoform (Homo sapiens) (UniProt P42336); assay: Inhibition of PI3Kalpha in human HCT116 cells assessed as reduction in Akt phosphorylation at Ser473 residues at 0.5 to 2 uM after 24 hrs by Western blot analysis; type: cell-based
[29] = molecular target: Phosphatidylinositol 4,5-bisphosphate 3-kinase catalytic subunit alpha isoform (Homo sapiens) (UniProt P42336); assay: Inhibition of PI3Kalpha phosphorylation in human HCT116 cells at 0.5 to 2 uM after 24 hrs by Western blot analysis; type: cell-based
MRC5 = assay: Antiproliferative activity against human MRC5 cells after 72 hrs by sulforhodamine B assay; type: cell-based; conditions: MRC5, 72 h
A549 = assay: Antiproliferative activity against human A549 cells after 72 hrs by sulforhodamine B assay; type: functional, cell-based; conditions: A549, 72 h
MDA-MB-231 = assay: Antiproliferative activity against human MDA-MB-231 cells after 72 hrs by sulforhodamine B assay; type: functional, cell-based; conditions: MDA-MB-231, 72 h

Compound: CCCCS(=O)(=O)Nc1cc(-c2ccc3ncnc(NCCN(C)C)c3c2)cnc1OC
- Activity (HCT-116 [1]): 3.57%
- Activity (HCT-116 [2]): 1.02%
- inhibition [3]: Active
- Activity (HCT-116 [4]): Active
- viability at 2 µM (HCT-116 [5]): 84.7%
- Activity (HCT-116 [6]): 54.1%
- IC50 (PI3K p110 beta/p85 alpha): 396 nM
- Activity (HCT-116 [7]): 11.11%
- Activity (HCT-116 [8]): Active
- IC50 (SNU-638): 480 nM
- Activity (HCT-116 [9]): Active
- Activity (HCT-116 [10]): 2.51%
- Activity (HCT-116 [11]): 1.5%
- Activity (HCT-116 [12]): Active
- Activity (HCT-116 [13]): Active
- Activity (HCT-116 [14]): 10.99%
- Activity (HCT-116 [15]): 13.65%
- Activity (HCT-116 [16]): 13.02%
- IC50 (SK-HEP1): 280 nM
- Activity (HCT-116 [17]): 3.7%
- Activity (HCT-116 [18]): Active
- IC50 [19]: 117 nM
- Activity (HCT-116 [20]): 20.53%
- IC50 (HEK293): 12600 nM
- Activity (HCT-116 [21]): 2.91%
- Activity (HCT-116 [22]): 10.2%
- Activity (HCT-116 [23]): Active
- Activity (HCT-116 [24]): 61.01%
- viability at 4 µM (HCT-116 [25]): 83.3%
- Activity (HCT-116 [26]): 10.13%
- IC50 [27]: 13.6 nM
- inhibition [28]: Active
- inhibition [29]: Active
- IC50 (MRC5): 18500 nM
- IC50 (A549): 1320 nM
- IC50 (MDA-MB-231): 280 nM
